This is an account of results in ChEMBL document CHEMBL1149275, “Structure-activity relationships of acetylcholinesterase noncovalent inhibitors based on a polyamine backbone. 3. Effect of replacing the inner polymethylene chain with cyclic moieties” (J Med Chem, 2004).

For assay [1], the target named is Acetylcholinesterase (Homo sapiens, UniProt P22303).
Description: Inhibition of human recombinant AChE
Assay [2] has as its target Cholinesterase (Homo sapiens, UniProt P06276).
Description: Inhibition of human recombinant BChE
In assay [3] the target is T1, Muscarinic acetylcholine receptor M2 (Homo sapiens) (UniProt P08172).
T1 sequence (whole entry): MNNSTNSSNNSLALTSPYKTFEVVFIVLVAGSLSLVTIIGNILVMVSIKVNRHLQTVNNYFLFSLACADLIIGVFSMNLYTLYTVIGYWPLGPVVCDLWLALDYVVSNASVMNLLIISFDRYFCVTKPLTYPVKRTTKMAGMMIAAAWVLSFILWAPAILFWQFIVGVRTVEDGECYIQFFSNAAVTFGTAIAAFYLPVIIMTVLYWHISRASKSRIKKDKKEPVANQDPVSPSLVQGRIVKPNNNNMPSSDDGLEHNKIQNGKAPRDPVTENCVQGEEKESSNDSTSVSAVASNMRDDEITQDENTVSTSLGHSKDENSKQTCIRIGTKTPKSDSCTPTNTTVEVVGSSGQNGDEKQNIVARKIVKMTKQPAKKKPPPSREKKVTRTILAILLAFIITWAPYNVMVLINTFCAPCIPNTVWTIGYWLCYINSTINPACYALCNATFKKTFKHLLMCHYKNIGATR
As to conditions: Cavia porcellus; Cardiac atrium.
Description: Antagonist activity at muscarinic M2 receptor assessed as contraction of electrically stimulated guinea pig left atrium at 10 uM

Sequence of Acetylcholinesterase (P22303 whole entry): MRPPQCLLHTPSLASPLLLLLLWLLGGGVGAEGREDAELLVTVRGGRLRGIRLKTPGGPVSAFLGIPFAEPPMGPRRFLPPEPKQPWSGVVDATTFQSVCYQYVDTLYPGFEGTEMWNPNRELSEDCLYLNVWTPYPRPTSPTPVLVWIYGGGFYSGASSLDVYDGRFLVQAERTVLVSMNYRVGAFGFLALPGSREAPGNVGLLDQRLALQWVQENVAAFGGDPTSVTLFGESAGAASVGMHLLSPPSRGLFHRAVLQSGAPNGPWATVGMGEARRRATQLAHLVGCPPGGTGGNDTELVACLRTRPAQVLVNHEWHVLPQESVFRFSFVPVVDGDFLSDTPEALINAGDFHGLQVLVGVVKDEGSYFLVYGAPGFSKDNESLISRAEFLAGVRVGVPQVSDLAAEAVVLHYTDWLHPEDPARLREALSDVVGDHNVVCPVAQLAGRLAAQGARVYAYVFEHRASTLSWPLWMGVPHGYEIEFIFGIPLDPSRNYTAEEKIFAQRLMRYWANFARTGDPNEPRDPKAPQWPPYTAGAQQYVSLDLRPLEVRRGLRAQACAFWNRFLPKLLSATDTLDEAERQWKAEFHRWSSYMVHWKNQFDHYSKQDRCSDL
Sequence of Cholinesterase (P06276 whole entry): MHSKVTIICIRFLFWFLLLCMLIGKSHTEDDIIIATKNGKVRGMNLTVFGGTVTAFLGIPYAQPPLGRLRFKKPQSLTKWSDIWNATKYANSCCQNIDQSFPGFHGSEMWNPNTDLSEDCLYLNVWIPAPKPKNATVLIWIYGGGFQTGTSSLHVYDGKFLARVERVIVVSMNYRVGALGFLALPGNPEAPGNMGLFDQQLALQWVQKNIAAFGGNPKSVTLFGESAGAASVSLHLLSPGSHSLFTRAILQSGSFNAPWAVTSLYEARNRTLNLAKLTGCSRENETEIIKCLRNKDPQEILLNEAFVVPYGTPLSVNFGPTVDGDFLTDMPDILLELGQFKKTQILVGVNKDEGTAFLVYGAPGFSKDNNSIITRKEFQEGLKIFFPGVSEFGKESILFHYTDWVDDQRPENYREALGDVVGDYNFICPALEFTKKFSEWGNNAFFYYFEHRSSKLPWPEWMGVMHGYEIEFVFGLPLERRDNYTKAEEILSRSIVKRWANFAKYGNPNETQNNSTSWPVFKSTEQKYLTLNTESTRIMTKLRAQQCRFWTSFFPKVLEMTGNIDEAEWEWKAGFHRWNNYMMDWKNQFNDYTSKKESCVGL

Take `CCN(CCCCCCNc1ccc(CCc2ccc(NCCCCCCN(CC)Cc3ccccc3OC)cc2)cc1)Cc1ccccc1OC`: the 50% inhibitory concentration (IC50) – broadly, the midpoint of a concentration-inhibition curve – is 30.9 µM in assay [1] and 95.5 µM in assay [2].

Regarding `CCN(CCCCCC(=O)N1CCC(C2CCN(C(=O)CCCCCN(CC)Cc3ccccc3OC)CC2)CC1)Cc1ccccc1OC`, the figures for the IC50 in assay [1] and in assay [2] were 0.00331 µM and 8.51 µM, respectively. The affinity in assay [1], expressed as Ki, was 0.00567 µM. In assay [3], the pKb – broadly, the Kb on a negative log10 scale, so that one unit is a factor of ten – stood at 6.18.

Take `CCN(CCCCCCNc1ccc(-c2ccc(NCCCCCCN(CC)Cc3ccccc3OC)cc2)cc1)Cc1ccccc1OC`: the IC50 is 2.63 µM in assay [1] and 15.5 µM in assay [2].

With `CCN(CCCCCC(=O)N(C)CCCCCCCCN(C)C(=O)CCCCCN(CC)Cc1ccccc1OC)Cc1ccccc1OC`, the pKb in assay [3] stood at 5.65.

For `CCN(CCCCCCNc1ccc(Cc2ccc(NCCCCCCN(CC)Cc3ccccc3OC)cc2)cc1)Cc1ccccc1OC`, the IC50 is 1.07 µM in assay [1] and 1.62 µM in assay [2].

For the molecule `CCN(CCCCCC(=O)Nc1ccc(-c2ccc(NC(=O)CCCCCN(CC)Cc3ccccc3OC)cc2)cc1)Cc1ccccc1OC`, the results for the IC50 in assay [1] and in assay [2] were 0.0363 µM and 1.86 µM, respectively.

Turning to `CCN(CCCCCC(=O)Nc1ccc(Cc2ccc(NC(=O)CCCCCN(CC)Cc3ccccc3OC)cc2)cc1)Cc1ccccc1OC`, the IC50 in assay [1] is 0.0631 µM; in assay [2] it was 1.82 µM.

Turning to `CCN(CCCCCC(=O)N1CCC(CCC2CCN(C(=O)CCCCCN(CC)Cc3ccccc3OC)CC2)CC1)Cc1ccccc1OC`, the figures for the IC50 in assay [1] and in assay [2] were 0.00741 µM and 3.63 µM, respectively.

On to `COc1ccccc1CN(C)CCCCCC(=O)N(C)CCCCCCCCN(C)C(=O)CCCCCN(C)Cc1ccccc1OC`, for which the pKb in assay [3] was found to be 6.39.

On to `CC[N+](C)(CCCCCC(=O)N1CCC(CCCC2CCN(C(=O)CCCCC[N+](C)(CC)Cc3ccccc3OC)CC2)CC1)Cc1ccccc1OC` (stereo not given), for which the 50% inhibitory concentration (IC50) in assay [1] was 0.00575 µM; in assay [2], 0.661 µM.

In the case of `CCN(CCCCCC(=O)N1CCC(CCCC2CCN(C(=O)CCCCCN(CC)Cc3ccccc3OC)CC2)CC1)Cc1ccccc1OC`, the IC50 in assay [1] was 0.00661 µM; in assay [2], 3.39 µM.

`CC[N+](C)(CCCCCC(=O)N1CCC(CCC2CCN(C(=O)CCCCC[N+](C)(CC)Cc3ccccc3OC)CC2)CC1)Cc1ccccc1OC` (stereo not given): the concentration for half-maximal inhibition (IC50) in assay [1] was 0.00575 µM; in assay [2], 1.86 µM.

For the molecule `CCN(CCCCCC(=O)N1CCC(CC2CCN(C(=O)CCCCCN(CC)Cc3ccccc3OC)CC2)CC1)Cc1ccccc1OC`, the values for the half-inhibitory concentration (IC50) in assay [1] and in assay [2] were 0.00331 µM and 6.46 µM, respectively.

As to `CC[N+](C)(CCCCCC(=O)Nc1ccc(CCc2ccc(NC(=O)CCCCC[N+](C)(CC)Cc3ccccc3OC)cc2)cc1)Cc1ccccc1OC` (stereo not given), the results for the IC50 in assay [1] and in assay [2] were 0.12 µM and 1.1 µM, respectively.

For `CCN(CCCCCC(=O)Nc1ccc(CCc2ccc(NC(=O)CCCCCN(CC)Cc3ccccc3OC)cc2)cc1)Cc1ccccc1OC`, the IC50 is 0.17 µM in assay [1] and 1.7 µM in assay [2].
